Reference: ChEMBL document CHEMBL1201862, “PubChem BioAssay data set” (2004)
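Where inhibition never reached the appropriate level, the endpoint shown equals the highest concentration tested. Otherwise, values were interpolated linearly from a five-concentration, 48-hour dose response in 96-well plates. GI50: concentration for 50% inhibition of growth.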 Activity calls are given as the source filed them. No stated cut-off is given here; in the data, active = GI50 up to about 1.1 µM and inactive = higher.

Columns and labels:
Assay in all cases: inhibition of tumour cell growth, NCI panel, 48 h
786-0 = system: 786-0
A498 = system: A498
A549 = system: A549
ACHN = system: ACHN
BT-549 = system: BT-549
CAKI-1 = system: CAKI-1
CCRF-CEM = system: CCRF-CEM
COLO 205 = system: COLO 205
DU-145 = system: DU-145
EKVX = system: EKVX
HCC 2998 = system: HCC 2998
HCT-116 = system: HCT-116
HCT-15 = system: HCT-15
HL-60 = system: HL-60
HOP-62 = system: HOP-62
HOP-92 = system: HOP-92
HT-29 = system: HT-29
Hs-578T = system: Hs-578T
IGROV-1 = system: IGROV-1
K562 = system: K562
LOX IMVI = system: LOX IMVI
M14 = system: M14
MCF7 = system: MCF7
MDA-MB-231 = system: MDA-MB-231
MDA-MB-435 = system: MDA-MB-435
MDA-N = system: MDA-N
Malme-3M = system: Malme-3M
NCI-H226 = system: NCI-H226
NCI-H23 = system: NCI-H23
NCI-H460 = system: NCI-H460
NCI-H522 = system: NCI-H522
NCI/ADR-RES = system: NCI/ADR-RES
OVCAR-3 = system: OVCAR-3
OVCAR-4 = system: OVCAR-4
OVCAR-5 = system: OVCAR-5
OVCAR-8 = system: OVCAR-8
PC-3 = system: PC-3
RXF 393 = system: RXF 393
SF-268 = system: SF-268
SF-295 = system: SF-295
SF-539 = system: SF-539
SK-MEL-28 = system: SK-MEL-28
SK-MEL-2 = system: SK-MEL-2
SK-MEL-5 = system: SK-MEL-5
SK-OV-3 = system: SK-OV-3
SN12C = system: SN12C
SNB-19 = system: SNB-19
SNB-75 = system: SNB-75
SR = system: SR
SW-620 = system: SW-620
TK-10 = system: TK-10
U-251 = system: U-251
UACC-257 = system: UACC-257
UACC-62 = system: UACC-62
UO-31 = system: UO-31
KM12 = system: KM12
MOLT-4 = system: MOLT-4

Compound: CC1=NC(=O)CNN1C1=NNC2(C(=O)N1)c1ccccc1-c1ccccc12
- GI50 (786-0): > 100 µM (inactive)
- GI50 (A498): > 100 µM (inactive)
- GI50 (A549): > 100 µM (inactive)
- GI50 (ACHN): > 100 µM (inactive)
- GI50 (BT-549): > 100 µM (inactive)
- GI50 (CAKI-1): > 100 µM (inactive)
- GI50 (CCRF-CEM): > 100 µM (inactive)
- GI50 (COLO 205): > 100 µM (inactive)
- GI50 (DU-145): > 100 µM (inactive)
- GI50 (EKVX): > 100 µM (inactive)
- GI50 (HCC 2998): > 100 µM (inactive)
- GI50 (HCT-116): > 100 µM (inactive)
- GI50 (HCT-15): > 100 µM
- GI50 (HL-60): > 100 µM (inactive)
- GI50 (HOP-62): > 100 µM (inactive)
- GI50 (HOP-92): > 100 µM (inactive)
- GI50 (HT-29): > 100 µM (inactive)
- GI50 (Hs-578T): 23.5 µM (inactive)
- GI50 (IGROV-1): > 100 µM (inactive)
- GI50 (K562): > 100 µM (inactive)
- GI50 (LOX IMVI): > 100 µM (inactive)
- GI50 (M14): > 100 µM (inactive)
- GI50 (MCF7): > 100 µM (inactive)
- GI50 (MDA-MB-231): > 100 µM (inactive)
- GI50 (MDA-MB-435): > 100 µM (inactive)
- GI50 (MDA-N): > 100 µM (inactive)
- GI50 (Malme-3M): > 100 µM (inactive)
- GI50 (NCI-H226): > 100 µM (inactive)
- GI50 (NCI-H23): > 100 µM (inactive)
- GI50 (NCI-H460): > 100 µM (inactive)
- GI50 (NCI-H522): > 100 µM (inactive)
- GI50 (NCI/ADR-RES): > 100 µM (inactive)
- GI50 (OVCAR-3): > 100 µM (inactive)
- GI50 (OVCAR-4): > 100 µM (inactive)
- GI50 (OVCAR-5): > 100 µM (inactive)
- GI50 (OVCAR-8): > 100 µM (inactive)
- GI50 (PC-3): > 100 µM (inactive)
- GI50 (RXF 393): > 100 µM (inactive)
- GI50 (SF-268): > 100 µM (inactive)
- GI50 (SF-295): > 100 µM (inactive)
- GI50 (SF-539): > 100 µM (inactive)
- GI50 (SK-MEL-28): > 100 µM (inactive)
- GI50 (SK-MEL-2): > 100 µM (inactive)
- GI50 (SK-MEL-5): > 100 µM (inactive)
- GI50 (SK-OV-3): > 100 µM (inactive)
- GI50 (SN12C): > 100 µM (inactive)
- GI50 (SNB-19): > 100 µM (inactive)
- GI50 (SNB-75): > 100 µM (inactive)
- GI50 (SR): 55 µM (inactive)
- GI50 (SW-620): > 100 µM (inactive)
- GI50 (TK-10): > 100 µM (inactive)
- GI50 (U-251): > 100 µM (inactive)
- GI50 (UACC-257): > 100 µM (inactive)
- GI50 (UACC-62): > 100 µM (inactive)
- GI50 (UO-31): > 100 µM (inactive)

Compound: O=C1Nc2c(Cl)cc(Cl)cc2/C1=N/NC(=O)c1ccccc1O
- GI50 (786-0): 12.8 µM (inactive)
- GI50 (A498): 16.5 µM (inactive)
- GI50 (A549): 13.2 µM (inactive)
- GI50 (ACHN): 12.8 µM (inactive)
- GI50 (BT-549): 14.5 µM (inactive)
- GI50 (CAKI-1): 16.8 µM (inactive)
- GI50 (CCRF-CEM): 11.2 µM (inactive)
- GI50 (COLO 205): 22.3 µM (inactive)
- GI50 (EKVX): 13.2 µM (inactive)
- GI50 (HCC 2998): 16.7 µM (inactive)
- GI50 (HCT-116): 13.6 µM (inactive)
- GI50 (HCT-15): 14.8 µM
- GI50 (HL-60): 15.1 µM (inactive)
- GI50 (HOP-62): 15.4 µM (inactive)
- GI50 (HOP-92): 15 µM (inactive)
- GI50 (HT-29): 18.7 µM (inactive)
- GI50 (Hs-578T): 14.8 µM (inactive)
- GI50 (IGROV-1): 12.3 µM (inactive)
- GI50 (KM12): 15.5 µM (inactive)
- GI50 (LOX IMVI): 12.9 µM (inactive)
- GI50 (M14): 16.1 µM (inactive)
- GI50 (MCF7): 19.1 µM (inactive)
- GI50 (MDA-MB-231): 15.6 µM (inactive)
- GI50 (MDA-MB-435): 13.2 µM (inactive)
- GI50 (MDA-N): 14.4 µM (inactive)
- GI50 (MOLT-4): 10 µM (inactive)
- GI50 (Malme-3M): 13.6 µM (inactive)
- GI50 (NCI-H226): 14.8 µM (inactive)
- GI50 (NCI-H23): 18.2 µM (inactive)
- GI50 (NCI-H460): 13.5 µM (inactive)
- GI50 (NCI/ADR-RES): 11.5 µM (inactive)
- GI50 (OVCAR-3): 11.2 µM (inactive)
- GI50 (OVCAR-4): 13.4 µM (inactive)
- GI50 (OVCAR-5): 18.3 µM (inactive)
- GI50 (OVCAR-8): 12.3 µM (inactive)
- GI50 (PC-3): 14.8 µM (inactive)
- GI50 (RXF 393): 12.2 µM (inactive)
- GI50 (SF-295): 14.9 µM (inactive)
- GI50 (SF-539): 14.6 µM (inactive)
- GI50 (SK-MEL-28): 15.5 µM (inactive)
- GI50 (SK-MEL-2): 12.7 µM (inactive)
- GI50 (SK-MEL-5): 14.8 µM (inactive)
- GI50 (SK-OV-3): 16.8 µM (inactive)
- GI50 (SN12C): 16.7 µM (inactive)
- GI50 (SNB-19): 14.4 µM (inactive)
- GI50 (SNB-75): 9.77 µM (inactive)
- GI50 (SR): 5.4 µM (inactive)
- GI50 (SW-620): 16.9 µM (inactive)
- GI50 (TK-10): 15.2 µM (inactive)
- GI50 (U-251): 8.51 µM (inactive)
- GI50 (UACC-257): 17.9 µM (inactive)
- GI50 (UACC-62): 12.1 µM (inactive)
- GI50 (UO-31): 11.9 µM (inactive)
